Among the test systems are HCC-2998 colon; HL-60(TB) leukemia; HS 578T breast; K-562 leukemia; SK-MEL-2 melanoma; T-47D breast; TK-10 renal; UACC-257 melanoma.
What all share (test): growth of human tumour cells (NCI), 48 h

Each structure is given as a SMILES string.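 Test compounds were applied to cells in 96-well plates for 48 hours at 5 doses. At the GI50, growth is halved. At the TGI there is no net growth.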

For `N#CCC12CC=CCC1=C(O)C(=O)c1ccc(O)cc12` (stereo not given), the TGI in the assay with HCC-2998 colon, in the assay on HL-60(TB) leukemia, in the assay on HS 578T breast, in the assay on K-562 leukemia, in the assay on SK-MEL-2 melanoma and in the assay with T-47D breast was > 100 µM in each case. In addition, the TGI with TK-10 renal and in the assay on UACC-257 melanoma was > 100 µM each time.
Take `O=C1CSC(=S)N1Cc1cccnc1`: the GI50 in the assay on HCC-2998 colon was 19.8 µM; in the assay with HL-60(TB) leukemia it was 7.27 µM; with HS 578T breast it was 17 µM; in the assay with K-562 leukemia, 3.75 µM; with SK-MEL-2 melanoma, 4.21 µM; in the assay on T-47D breast it was 11.1 µM. Moreover, the figures for the GI50 in the assay on TK-10 renal and in the assay on UACC-257 melanoma were 2.84 µM and 5.97 µM, respectively. Also, the TGI was 36.9 µM in the assay on HCC-2998 colon; 49 µM with HL-60(TB) leukemia; 66.1 µM in the assay on HS 578T breast; > 100 µM in the assay on K-562 leukemia; 16.5 µM in the assay with SK-MEL-2 melanoma; 32.7 µM with T-47D breast. The TGI in the assay on TK-10 renal is 7.14 µM; with UACC-257 melanoma it was 21.9 µM.
For `Cc1cc(NCCCCNc2ccnc3cc(Cl)ccc23)nc(Nc2ccc(C(=O)N3CCCC3)cc2)n1`, the GI50 with HCC-2998 colon is 2.99 µM; in the assay with HL-60(TB) leukemia, 0.202 µM; with HS 578T breast, 1.85 µM; in the assay on K-562 leukemia, 0.306 µM; in the assay on SK-MEL-2 melanoma, 2.18 µM; in the assay with T-47D breast, 2.64 µM. In addition, the GI50 in the assay with TK-10 renal is 1.84 µM; in the assay with UACC-257 melanoma, 2.09 µM. The TGI in the assay on HCC-2998 colon amounted to 8.36 µM; in the assay on HL-60(TB) leukemia it was 2.27 µM; with HS 578T breast, 4.74 µM; with K-562 leukemia it was 2.33 µM; in the assay on SK-MEL-2 melanoma, 4.27 µM; in the assay with T-47D breast, 6.76 µM. Further, the TGI in the assay with TK-10 renal was 4.25 µM; in the assay with UACC-257 melanoma, 4.19 µM.
As for `O=C(N/N=c1/ccoc2cccnc12)N1CCN(c2ncccn2)CC1`, the GI50 with HCC-2998 colon was 0.905 µM; in the assay with HL-60(TB) leukemia, 0.0149 µM; in the assay on HS 578T breast, 1.07 µM; in the assay with K-562 leukemia, < 0.01 µM; in the assay with SK-MEL-2 melanoma, 1.11 µM; in the assay on T-47D breast, < 0.01 µM. Further, the results for the GI50 in the assay with TK-10 renal and in the assay with UACC-257 melanoma were 0.992 µM and 0.0387 µM, respectively. Also, the TGI is 6.59 µM in the assay with HCC-2998 colon; 1.69 µM with HL-60(TB) leukemia; 24.5 µM with HS 578T breast; 4.82 µM in the assay on K-562 leukemia; 8.42 µM in the assay with SK-MEL-2 melanoma; 7.85 µM in the assay on T-47D breast. Also, the figures for the TGI in the assay with TK-10 renal and in the assay on UACC-257 melanoma were 8.08 µM and 5.15 µM, respectively.
Regarding `O=C1Nc2ccccc2/C1=C/c1ccccc1`, the TGI with HCC-2998 colon is 30.1 µM; in the assay on HL-60(TB) leukemia, 43.5 µM; with HS 578T breast, 91.8 µM; in the assay on K-562 leukemia, > 100 µM; with SK-MEL-2 melanoma, 28.5 µM; in the assay with T-47D breast, 41.9 µM. The results for the TGI in the assay with TK-10 renal and in the assay with UACC-257 melanoma were 45.1 µM and 29 µM, respectively.
In the case of `Cc1ccc(NSc2ccccc2[N+](=O)[O-])cc1`, the GI50 was 1.82 µM with HCC-2998 colon; 0.368 µM in the assay with HL-60(TB) leukemia; 0.921 µM in the assay on HS 578T breast; 0.125 µM with K-562 leukemia; 1.17 µM with SK-MEL-2 melanoma; 0.444 µM with T-47D breast. Also, the GI50 in the assay on TK-10 renal is 10.4 µM; in the assay with UACC-257 melanoma it was 17.4 µM. The TGI in the assay on HCC-2998 colon came to 10.6 µM; in the assay with HL-60(TB) leukemia, 14.5 µM; in the assay on HS 578T breast, 13.8 µM; in the assay on K-562 leukemia it was 22.9 µM; in the assay on SK-MEL-2 melanoma, 21.9 µM; in the assay with T-47D breast, 40.4 µM. For the same molecule, the TGI in the assay with TK-10 renal came to 25.4 µM; in the assay on UACC-257 melanoma, 36.7 µM.
`Oc1ccc2ccccc2c1C(c1ccc(Cl)cc1)c1c(O)ccc2ccccc12`: the TGI with HCC-2998 colon was 6.34 µM; with HL-60(TB) leukemia, 4.91 µM; with HS 578T breast, 8.62 µM; with K-562 leukemia, 10.6 µM; in the assay with SK-MEL-2 melanoma, 6.71 µM; in the assay on T-47D breast, 12.3 µM. Further, the values for the TGI in the assay with TK-10 renal and in the assay on UACC-257 melanoma were 11.1 µM and 15.9 µM, respectively.
For `Cc1cc(O)ccc1O`, the GI50 is 73.6 µM in the assay with HCC-2998 colon; 2.64 µM in the assay on HL-60(TB) leukemia; 26.7 µM with HS 578T breast; 13.8 µM in the assay with K-562 leukemia; > 100 µM in the assay with SK-MEL-2 melanoma; 18.2 µM in the assay with T-47D breast. Further, the GI50 was 19.5 µM with TK-10 renal and 43.1 µM in the assay with UACC-257 melanoma. Moreover, the TGI in the assay on HCC-2998 colon was > 100 µM; in the assay with HL-60(TB) leukemia, 7.43 µM; with HS 578T breast it was > 100 µM; in the assay with K-562 leukemia, 48.1 µM; in the assay with SK-MEL-2 melanoma, > 100 µM; in the assay on T-47D breast, 60.8 µM. The TGI in the assay with TK-10 renal is 35 µM; in the assay on UACC-257 melanoma, > 100 µM.
Consider `COc1cc(C(=O)N2CCN(c3ccccc3OC)CC2)c(N)cc1OCc1ccccc1`, for which the GI50 in the assay with HCC-2998 colon was 40 µM; with HL-60(TB) leukemia, 25.5 µM; in the assay on HS 578T breast it was 42.7 µM; with K-562 leukemia, 27.2 µM; in the assay on SK-MEL-2 melanoma, 28.2 µM; with T-47D breast, 26.2 µM. Moreover, the figures for the GI50 with TK-10 renal and in the assay on UACC-257 melanoma were 31.9 µM and 39 µM, respectively. Also, the TGI with HCC-2998 colon was > 100 µM; in the assay on HL-60(TB) leukemia, 48.8 µM; in the assay on HS 578T breast it was > 100 µM; in the assay on K-562 leukemia, > 100 µM; with SK-MEL-2 melanoma, 66.8 µM; in the assay with T-47D breast, 99.5 µM. Further, the figures for the TGI in the assay with TK-10 renal and in the assay with UACC-257 melanoma were 73.2 µM and > 100 µM, respectively.

The values are drawn from PubChem BioAssay (NCI).
